{"source": "patent US11607414B2", "about": "“Small molecule inhibitors of EGFR and PI3K” (The Regents of the University of Michigan, priority 2014, dated 2023)", "key": {"[1]": {"target": "EGFR (Homo sapiens, UniProt P00533)", "sequence (P00533 25-1210)": "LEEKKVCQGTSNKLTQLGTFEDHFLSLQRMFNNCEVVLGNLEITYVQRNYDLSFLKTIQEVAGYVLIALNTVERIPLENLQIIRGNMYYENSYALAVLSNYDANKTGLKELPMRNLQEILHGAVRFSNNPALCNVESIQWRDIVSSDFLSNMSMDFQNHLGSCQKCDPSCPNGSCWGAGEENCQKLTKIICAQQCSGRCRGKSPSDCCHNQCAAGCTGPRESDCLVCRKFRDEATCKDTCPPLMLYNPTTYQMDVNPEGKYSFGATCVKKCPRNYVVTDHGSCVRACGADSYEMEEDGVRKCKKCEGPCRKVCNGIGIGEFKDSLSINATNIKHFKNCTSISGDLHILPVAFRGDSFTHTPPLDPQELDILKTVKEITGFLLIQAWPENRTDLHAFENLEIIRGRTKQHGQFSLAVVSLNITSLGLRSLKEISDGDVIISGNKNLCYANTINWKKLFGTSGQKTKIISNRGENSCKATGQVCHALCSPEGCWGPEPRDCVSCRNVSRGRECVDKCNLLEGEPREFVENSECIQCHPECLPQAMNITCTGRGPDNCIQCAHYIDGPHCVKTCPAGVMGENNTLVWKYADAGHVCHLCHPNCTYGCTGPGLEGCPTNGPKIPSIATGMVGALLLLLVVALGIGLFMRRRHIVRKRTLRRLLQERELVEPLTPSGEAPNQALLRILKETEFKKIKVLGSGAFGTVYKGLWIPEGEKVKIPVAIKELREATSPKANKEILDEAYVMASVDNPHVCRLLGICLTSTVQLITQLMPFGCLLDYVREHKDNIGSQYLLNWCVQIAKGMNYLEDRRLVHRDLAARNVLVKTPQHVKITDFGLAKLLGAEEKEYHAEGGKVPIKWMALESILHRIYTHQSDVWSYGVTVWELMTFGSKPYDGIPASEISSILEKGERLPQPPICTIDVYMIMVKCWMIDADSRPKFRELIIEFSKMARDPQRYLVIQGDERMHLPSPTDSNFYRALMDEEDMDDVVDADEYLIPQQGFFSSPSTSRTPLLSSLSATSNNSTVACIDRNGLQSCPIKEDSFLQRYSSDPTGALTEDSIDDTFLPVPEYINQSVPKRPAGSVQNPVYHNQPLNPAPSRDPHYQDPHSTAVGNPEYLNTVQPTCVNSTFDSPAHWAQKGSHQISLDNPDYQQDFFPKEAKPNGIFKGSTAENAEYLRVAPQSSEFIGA", "assay": "Z'-LYTE biochemical kinase assay, EGFR", "conditions": "read-out: potency against EGFR", "description": "Various compounds were tested for their ability to inhibit EGFR and PIK3CA. The assays determining inhibitions are given in Example 2 Assays-Z′-LYTE® and ADAPTA.\nAssays: The Z′-LYTE® biochemical assay employs a fluorescence-based, coupled-enzyme format and is based on the differential sensitivity of phosphorylated and non-phosphorylated peptides to proteolytic cleavage (FIG. 6). The peptide substrate is labeled with two fluorophores—one at each end— that make up a FRET pair. In the primary reaction, the kinase transfers the gamma-phosphate of ATP to a single tyrosine, serine or threonine residue in a synthetic FRET-peptide. […] A ratiometric method, which calculates the ratio (the Emission Ratio) of donor emission to acceptor emission after excitation of the donor fluorophore at 400 nm, is used to quantitate reaction progress.\nA significant benefit of this ratiometric method for quantitating reaction progress is the elimination of well-to-well variations in FRET-peptide concentration and signal intensities. […]\nBoth cleaved and uncleaved FRET-peptides contribute to the fluorescence signals and therefore to the Emission Ratio. The extent of phosphorylation of the FRET-peptide can be calculated from the Emission Ratio. […]\nBar-coded Corning, low volume NBS, black 384-well plate (Corning Cat. 4514) 1. […] Read on fluorescence plate reader and analyze the data."}, "[2]": {"target": "panel of 39 kinases (tyrosine, serine/threonine and lipid kinases)", "assay": "Broad panel of 39 kinases at 10 μM", "type": "biochemical", "from_the_text": "Numerous hits were designed with nanomolar potency against EGFR and PIK3CA. […] A structure-activity relationship was shown for these agents against both of the biochemical targets."}, "[3]": {"test_system": "phosphorylation of EGFR in HCT-116 tumors", "assay": "In vivo pharmacodynamics in subcutaneous HCT-116 tumors, pEGFR", "conditions": "intraperitoneal 100 mg/kg", "from_the_text": "(§1) However, additional synthesis of MOL-162 is needed to allow a full pharmacodynamic time course study to be carried out to determine the maximal degree of target inhibition of both targets after single and repeated daily dosing."}, "[4]": {"test_system": "phosphorylation of AKT in HCT-116 tumors", "assay": "In vivo pharmacodynamics in subcutaneous HCT-116 tumors, pAKT", "conditions": "intraperitoneal 100 mg/kg", "from_the_text": "as §1"}, "[5]": {"test_system": "NCI-60 cell panel", "assay": "NCI-60 COMPARE panel, one-dose % growth", "type": "cell-based, human", "conditions": "10 μM", "description": "The method is outlined in Example 2—NCI COMPARE Panel.\nThe human tumor cell lines of the cancer screening panel are grown in RPMI 1640 medium containing 5% fetal bovine serum and 2 mM L-glutamine. For a typical screening experiment, cells are inoculated into 96 well microtiter plates in 100 μL at plating densities ranging from 5,000 to 40,000 cells/well depending on the doubling time of individual cell lines. After cell inoculation, the microtiter plates are incubated at 37° C., 5% CO2, 95% air and 100% relative humidity for 24 h prior to addition of experimental drugs. […]\nFollowing drug addition, the plates are incubated for an additional 48 h at 37° C., 5% CO2, 95% air, and 100% relative humidity. […] Bound stain is subsequently solubilized with 10 mM trizma base, and the absorbance is read on an automated plate reader at a wavelength of 515 nm. […] Using the seven absorbance measurements [time zero, (Tz), control growth, (C), and test growth in the presence of drug at the five concentration levels (Ti)], the percentage growth is calculated at each of the drug concentrations levels. Percentage growth inhibition is calculated as: [(Ti−Tz)/(C−Tz)]×100 for concentrations for which Ti>/=Tz [(Ti−Tz)/Tz]×100 for concentrations for which Ti<Tz. […]"}, "[6]": {"assay": "Tolerability in xenograft-bearing mice", "type": "in vivo", "conditions": "oral, daily for 10 days at 20 and 100 mg/kg", "from_the_text": "(§2) FIGS. 8A, 8B, 8C, 8D, and 8E show in vivo efficacy of MOL-201 against, HCT-116, A431, COL-205, SK-MEL5 and MDA-MB-468 xenografts. […] The method is outlined in Example 2—Xenograft Studies.\n(§3) Female 6-7 week old NCR nude mice (CrTac:NCr-Foxn1nu from Taconic), 6-7 weeks old, were implanted subcutaneously with 1×10^6 to 1×10^7 cells in a 1:1 serum-free media/Matrigel® mixture into the region of the right axilla. Mice were randomized into treatment groups and treatments initiated when tumors reached 100 to 200 mg. MTX-201 was administered daily for 10 days by oral gavage as a clear yellow solution in 5% DMSO/95% PEG300, based upon individual animal body weight (0.2 ml/20 g). Subcutaneous tumor volume and body weights were measured two to three times a week. Tumor volumes were calculated by measuring two perpendicular diameters with calipers and using the formula: tumor volume=(length×width2)/2. Mice were held following cessation of treatment until tumor burdens reached −1000 mg, to allow for calculation of tumor growth delay. Percent treated/control (% T/C) was calculated by dividing the median treated tumor weight by the median control tumor weight and multiplying by 100 on the last day of treatment. Tumor growth delay (T-C) was calculated by subtracting the median time to reach evaluation size (750 mg) of the treated group by the median time to evaluation size of the control group. […]"}, "[7]": {"test_system": "HCT-116 xenografts", "assay": "Xenograft study, HCT-116", "type": "in vivo, NCR nude mice", "conditions": "higher dose (100 mg/kg), daily for 10 days, oral", "from_the_text": "as §2, §3"}, "[8]": {"test_system": "A431 xenografts", "assay": "Xenograft study, A431", "type": "in vivo, NCR nude mice", "conditions": "higher dose (100 mg/kg), daily for 10 days, oral", "from_the_text": "as §2, §3"}, "[9]": {"test_system": "SK-MEL5 xenografts", "assay": "Xenograft study, SK-MEL5", "type": "in vivo, NCR nude mice", "conditions": "higher dose (100 mg/kg), daily for 10 days, oral", "from_the_text": "as §2, §3"}, "[10]": {"test_system": "COL-205 xenografts", "assay": "Xenograft study, COL-205", "type": "in vivo, NCR nude mice", "conditions": "higher dose (100 mg/kg), daily for 10 days, oral", "from_the_text": "as §2, §3"}, "[11]": {"test_system": "HCT-116, A431, COL-205, SK-MEL5 and MDA-MB-468 xenografts", "assay": "Xenograft studies, model not stated for the lower dose", "type": "in vivo, NCR nude mice", "conditions": "lower dose of 20 mg/kg", "from_the_text": "as §2, §3"}}, "data": [{"compound": "COc1ccc(Nc2ncnc3ccc(-c4cncc(NS(C)(=O)=O)c4)cc23)cc1Cl", "note": "[MOL-153, N-(5-(4-((3-chloro-4-methoxyphenyl)amino)quinazolin-6-yl)pyridin-3-yl)methanesulfonamide]", "values": [{"measurement": "IC50", "setting": "[1]", "result": 0.349, "unit": "µM"}, {"measurement": "kinase profile (in words)", "setting": "[2]", "result": "clean kinase profile"}, {"measurement": "inhibition of pEGFR in tumors", "setting": "[3]", "result": "not detected"}, {"measurement": "inhibition of pAKT in tumors", "setting": "[4]", "result": "inhibition of pAKT"}]}, {"compound": "CS(=O)(=O)Nc1cc(-c2ccc3ncnc(Nc4cccc(Cl)c4)c3c2)cnc1Cl", "note": "[MOL-201, N-(2-chloro-5-(4-((3-chlorophenyl)amino)quinazolin-6-yl)pyridin-3-yl)methanesulfonamide]", "values": [{"measurement": "% growth in NCI-60 panel (in words)", "setting": "[5]", "result": "broad cell kill"}, {"measurement": "tolerability", "setting": "[6]", "result": "well tolerated by mice with no clinical observations of toxicity"}, {"measurement": "anti-tumor activity (T/C and T-C)", "setting": "[7]", "result": "Anti-tumor activity observed"}, {"measurement": "anti-tumor activity (T/C and T-C)", "setting": "[8]", "result": "Anti-tumor activity observed"}, {"measurement": "anti-tumor activity (T/C and T-C)", "setting": "[9]", "result": "Anti-tumor activity observed"}, {"measurement": "anti-tumor activity (T/C and T-C)", "setting": "[10]", "result": "Anti-tumor activity observed"}, {"measurement": "anti-tumor activity", "setting": "[11]", "result": "elicited anti-tumor activity"}]}]}
